Here are results for nine molecules from patent publication US20060116316A1, “Heterocyclic inhibitors of IRES-mediated translation and methods of use thereof” (priority 2004, published 2006).

The subject of the experiment is HCV IRES. The experiment can be described thus: HCV IRES reporter FACS assay (GFP expression ratio, intein-expressed cyclic peptides). The format is cell-based, Hepatitis C virus. The following applies: ratio at least 1.20 = significant activity. The text has this: [The source words this procedure for another variant and says it was used here with some conditions changed.] Cells producing libraries of cyclic 3-mers and 4-mers (i.e., libraries of cyclic peptides that contain 3 or 4 amino acid residues) were constructed using methods identical to those of Kinsella et al (J Biol. Chem. 2002 277:37512-8), except different oligonucleotides were used for library construction. Clones from this library were screened in an assay shown in FIG. 2 to identify IRES-inhibitory compounds.
In summary, separate cyclic 3-mer and cyclic 4-mer libraries were constructed such that each peptide of the library contained a fixed Ser, Thr or Cys residue (at position 1) and the remaining residues were randomized. For library construction, degenerate oligonucleotides of sequence 5′-[…](AGC/ACC/TGC)(NNK)2 or 3 TGCATCAGCGGCGACAG-3′ were annealed to the primer 5′-[…]-3′ and extended using the Expand PCR kit (Roche Molecular Biochemicals). The double-stranded DNA insert was digested and inserted into the BclI/DrdI sites of DnaBO-e-BFP (ACUC). The plasmid libraries were electroporated into ElectroMAX DH 10B competent E. coli (Invitrogen) for amplification on LB+amp agar medium. […] Expression of the intein is detected by detecting BFP expression. Expression of the intein (and the cyclic peptide produced by the intein) is suppressible by addition of exogenous doxycycline. The amino acid sequence of the junctions of the intein scaffold used in making the 3-mer library is Val-His-Asn-X3 or 4-Cys-Ile-Ser, where X3 or 4 are three or four contiguous amino acids.
Infectious retroviral particles were produced by transfection of 15 µg of each library (as described in Swift et al, (1999). Current Protocols in Immunology Vol. 10.17C, pp. 1-17, Freeman, N.Y.) into approximately 5×10^6 Phoenix-A packaging cells. Each resulting library of retroviral particles was then used to infect 5×10^6 BJAB-S3A11 reporter cells and a FACS based selection was carried out to isolate cells with reduced HCV-IRES reporter output.
In detail, referring to FIG. 2, the cells used in the assay contained an IRES-dependent reporter system. […]. Also present in the cells is a control reporter system for assaying the activity of 5′ cap-dependent translation (the mechanism by which most cellular proteins are normally translated). The control reporter system contains a CMV promoter that drives the transcription of an RNA containing 5′ cap-dependent UTR, operably linked to an RNA encoding RFP (red fluorescent protein). Translation of RFP is dependent on the activity of the 5′ cap-dependent UTR.
Cells containing both the cyclic compound library and the reporter systems described above were first screened for survival upon exposure to diptheria toxin, and then screened by FACS to identify cells that had reduced GFP expression, as compared to RFP expression. Cells were expanded and replica-plated and grown in the presence or absence of dox (100 ng/ml) for four days. Plates were stimulated with IL-4 and GFP expression (relative to RFP) was monitored by flow cytometry. The IRES-inhibitory activity of a peptide is evaluated by calculating the ratio of the geometric mean of GFP expression of peptide positive cells (“peptide pos+” cells i.e., cells not contacted with dox) to the geometric mean of GFP expression of peptide negative cells (“peptide pos−” cells i.e., cells contacted with dox).
Cyclic peptides assigned higher scores have a greater IRES-inhibitory activity.
The number shown in parentheses after each of the amino acid sequences is the IRES-inhibitory activity ratio, as discussed above.

[1] abbreviates: BJAB-S3A11 reporter cells, +/- dox 100 ng/ml four days, library intein junction Val-His-Asn-X1X2X3-Cys-Ile-Ser.

Where a SMILES comes first, the peptide text is derived from it.

Turning to `C[C@@H](O)[C@@H]1NC(=O)[C@H](Cc2c[nH]c3ccccc23)NC(=O)[C@H](Cc2cnc[nH]2)NC1=O` [cyclo-THW, cyclo[THW]] (cyclo(His-Trp-Thr)), the “IRES-inhibitory activity ratio (geometric mean GFP expression, peptide positive cells / peptide negative cells)” value under setting [1] worked out at 1.49.
On the same count and under the same terms, then `CC(C)C[C@@H]1NC(=O)[C@H]([C@@H](C)O)NC(=O)[C@H](Cc2c[nH]c3ccccc23)NC1=O` [cyclo-TLW, cyclo[TLW]] (cyclo(Leu-Trp-Thr)), with 1.2.
Same read-out and setting: then `CSCC[C@@H]1NC(=O)[C@H]([C@@H](C)O)NC(=O)[C@H](Cc2ccccc2)NC1=O` [cyclo-TMF, cyclo[TMF]] (cyclo(Phe-Thr-Met)), with 1.37; and `CSCC[C@@H]1NC(=O)[C@H]([C@@H](C)O)NC(=O)[C@H](C(C)C)NC1=O` [cyclo-TMV, cyclo[TMV]] (cyclo(Met-Val-Thr)), with 1.56.
The same measure, in the same setting: the result for `CSCC[C@@H]1NC(=O)[C@H]([C@@H](C)O)NC(=O)[C@H](Cc2c[nH]c3ccccc23)NC1=O` [cyclo-TMW, cyclo[TMW]] (cyclo(Met-Trp-Thr)) reads 2.1.
As for `C[C@@H](O)[C@@H]1NC(=O)[C@H](Cc2c[nH]c3ccccc23)NC(=O)[C@H](CC(N)=O)NC1=O` [cyclo-TQW, cyclo[TQW]], the “IRES-inhibitory activity ratio (geometric mean GFP expression, peptide positive cells / peptide negative cells)” value under setting [1] came out at 1.7.
Same read-out and setting: the result for `C[C@@H](O)[C@@H]1NC(=O)[C@H](Cc2c[nH]c3ccccc23)NC(=O)[C@H](CO)NC1=O` [cyclo-TSW, cyclo[TSW]] (cyclo(Ser-Trp-Thr)) reads 1.25.
For the molecule `C[C@@H](O)[C@@H]1NC(=O)[C@H](CCCNC(=N)N)NC(=O)[C@H](Cc2ccccc2)NC(=O)[C@H](Cc2c[nH]c3ccccc23)NC1=O` [cyclo-TWFR, cyclo[TWFR]] (cyclo(FRTW)), under “4-mers from mutant intein scaffold, junction Val-His-Asn-X1X2X3X4-Cys-Ser”, the “IRES-inhibitory activity ratio (geometric mean GFP expression, peptide positive cells / peptide negative cells)” value worked out at 1.56.
Regarding `C[C@@H](O)[C@@H]1NC(=O)[C@H](Cc2c[nH]c3ccccc23)NC(=O)[C@H](Cc2ccc(O)cc2)NC1=O` [cyclo-TYW, cyclo[TYW]] (cyclo(Thr-Tyr-Trp)), the “IRES-inhibitory activity ratio (geometric mean GFP expression, peptide positive cells / peptide negative cells)” value under setting [1] came out at 2.23.
